Laboratory results: the CheMixHub viscosity set

Experiment: xn = mol fraction of the nth substance listed

CC1COC(=O)O1 (stereo unspecified) + Cc1ccc(C)cc1
viscosity [mPa·s], 101 kPa
Settings	298.15 K	308.15 K
x1 = 0.0227	0.6155	0.5443
x1 = 0.0397	0.6246	0.5534
x1 = 0.0573	0.6333	0.5634
x1 = 0.0816	–	0.5779
x1 = 0.098	0.6527	0.5884
x1 = 0.209	0.728	0.6727
x1 = 0.3029	0.8062	0.7639
x1 = 0.3993	0.9317	0.8783
x1 = 0.5028	1.116	1.026
x1 = 0.5978	1.316	1.184
x1 = 0.7068	1.584	1.394
x1 = 0.8012	1.856	1.599
x1 = 0.8996	2.149	1.835

CC1COC(=O)O1 (stereo unspecified) + Cc1ccccc1
viscosity [mPa·s], 101.3 kPa
Settings	293.15 K	298.15 K	303.15 K	308.15 K
x1 = 0.0911	0.6805	0.6333	0.5934	0.5572
x1 = 0.1223	–	–	0.6125	–
x1 = 0.1841	0.7726	0.719	0.6689	0.6294
x1 = 0.2385	–	–	0.7127	–
x1 = 0.2789	0.8738	0.8139	0.7586	0.7171
x1 = 0.3493	–	–	0.824	–
x1 = 0.3757	1.006	0.9358	0.8694	0.8243
x1 = 0.4553	–	–	0.9463	–
x1 = 0.4744	1.149	1.074	0.9983	0.9407
x1 = 0.5561	–	–	1.085	–
x1 = 0.5752	1.292	1.195	1.103	1.03
x1 = 0.6524	–	–	1.244	–
x1 = 0.678	1.529	1.404	1.304	1.203
x1 = 0.7452	–	–	1.431	–
x1 = 0.7831	1.856	1.69	1.549	1.42
x1 = 0.8335	–	–	1.646	–
x1 = 0.8904	2.256	2.048	1.869	1.71
x1 = 0.9188	–	–	1.888	–

c1ccc2ccccc2c1 + Cc1ccccc1
Settings	viscosity [mPa·s]
293.15 K, 101.3 kPa, x1 = 0.00773	0.6067
293.15 K, 101.3 kPa, x1 = 0.01364	0.606
293.15 K, 101.3 kPa, x1 = 0.02032	0.6117
293.15 K, 101.3 kPa, x1 = 0.02587	0.616
293.15 K, 101.3 kPa, x1 = 0.03281	0.6241
293.15 K, 101.3 kPa, x1 = 0.03882	0.6277
293.15 K, 101.3 kPa, x1 = 0.04399	0.6308
298.15 K, 101 kPa, x1 = 0.0419	0.5848
298.15 K, 101 kPa, x1 = 0.1026	0.6394
298.15 K, 101 kPa, x1 = 0.1533	0.6866
298.15 K, 101 kPa, x1 = 0.2127	0.747
298.15 K, 101.3 kPa, x1 = 0.00773	0.5676
298.15 K, 101.3 kPa, x1 = 0.01364	0.5709
298.15 K, 101.3 kPa, x1 = 0.02032	0.5768
298.15 K, 101.3 kPa, x1 = 0.02587	0.581
298.15 K, 101.3 kPa, x1 = 0.03281	0.5863
298.15 K, 101.3 kPa, x1 = 0.03882	0.591
298.15 K, 101.3 kPa, x1 = 0.04399	0.5948
303.15 K, 101 kPa, x1 = 0.3218	0.7855
308.15 K, 101 kPa, x1 = 0.3218	0.747
308.15 K, 101 kPa, x1 = 0.3709	0.8101
313.15 K, 101 kPa, x1 = 0.3218	0.7058
313.15 K, 101 kPa, x1 = 0.3709	0.7571
313.15 K, 101.3 kPa, x1 = 0.00773	0.4785
313.15 K, 101.3 kPa, x1 = 0.01364	0.4809
313.15 K, 101.3 kPa, x1 = 0.02032	0.4846
313.15 K, 101.3 kPa, x1 = 0.02587	0.4888
313.15 K, 101.3 kPa, x1 = 0.03281	0.4919
313.15 K, 101.3 kPa, x1 = 0.03882	0.4951
313.15 K, 101.3 kPa, x1 = 0.04399	0.4995
318.15 K, 101 kPa, x1 = 0.3218	0.661
318.15 K, 101 kPa, x1 = 0.3709	0.7105
323.15 K, 101 kPa, x1 = 0.3218	0.627
323.15 K, 101 kPa, x1 = 0.3709	0.672
323.15 K, 101.3 kPa, x1 = 0.00773	0.4281
323.15 K, 101.3 kPa, x1 = 0.01364	0.4311
323.15 K, 101.3 kPa, x1 = 0.02032	0.4342
323.15 K, 101.3 kPa, x1 = 0.02587	0.4374
323.15 K, 101.3 kPa, x1 = 0.03882	0.4433
323.15 K, 101.3 kPa, x1 = 0.04136	0.4401
323.15 K, 101.3 kPa, x1 = 0.04399	0.4469
